≈ marks a conversion by molar mass, not a printed value. Structures can show the parent of a compound that is named as a salt.
What was measured:
[1] = physchem; conditions: pH 7.4
[2] = PAMPA, pH 7.4
[3] = tested on: NQO1 enzymatic activity (Nrf2 transcriptional activity); test: NQO1 enzyme activity assay in Hepa1c1c7 cells; format: cell-based, mouse; conditions: Hepa1c1c7, 24 h
[4] = in vitro; conditions: human, Cytotoxicity IC50 concentration
[5] = tested on: ARPE19 retinal pigment epithelial cells; conditions: human
[6] = target: Keap1 Kelch domain protein (Homo sapiens, UniProt Q14145); conditions: 10 μM compound, 5 μM Keap1; Ti Keap1 + vehicle 61.3 °C
[7] = tested on: Hepa1c1c7 mouse hepatoma cells; test: Cytotoxicity seen in the NQO1 assay; format: cell-based

Chain of Keap1 Kelch domain protein (Q14145 321-609 limits assumed): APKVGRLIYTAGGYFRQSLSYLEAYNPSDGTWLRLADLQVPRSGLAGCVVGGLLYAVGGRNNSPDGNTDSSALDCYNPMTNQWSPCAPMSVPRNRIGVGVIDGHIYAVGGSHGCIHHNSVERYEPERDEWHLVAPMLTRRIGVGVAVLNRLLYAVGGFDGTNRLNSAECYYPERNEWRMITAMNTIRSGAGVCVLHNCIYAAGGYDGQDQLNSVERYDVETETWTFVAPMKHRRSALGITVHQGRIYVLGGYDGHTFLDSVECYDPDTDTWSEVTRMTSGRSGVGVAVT

Row | SMILES | solubility [1] | further results
1 | CCCCOc1cc(N(CC(=O)O)S(=O)(=O)c2ccc(OC)cc2)ccc1N(CC(=O)O)S(=O)(=O)c1ccc(OC)cc1 [Compound 32, 2,2′-((2-Butoxy-1,4-phenylene)bis(((4-methoxyphenyl)sulfonyl)azanediyl))diacetic Acid] | 362 µg/mL (≈ 569 µM) | 
2 | COc1ccc(S(=O)(=O)N(CC(=O)O)c2ccc(N(CC(=O)O)S(=O)(=O)c3ccc(OC)cc3)c(OC(C)C)c2)cc1 [Compound 37, 2,2′-((2-Isopropoxy-1,4-phenylene)bis(((4-methoxyphenyl)sulfonyl)azanediyl))diacetic Acid] | 288 µg/mL (≈ 463 µM) | logPe (permeability coefficient) [2]: -4.74
3 | COC(=O)/C=C/C(=O)OC [DMF, dimethyl fumarate] |  | NQO1 induction, concentration-response [3]: Dose-dependent induction
4 | C[S+]([O-])CCCCN=C=S (centres unmarked) [Sulforaphane, sulforaphane] |  | IC50 [4]: 9.89 ± 2.91 µM; IC50 [5]: ~10 µM
5 | COc1ccc(S(=O)(=O)N(CC(=O)O)c2ccc(N(CC(=O)O)S(=O)(=O)c3ccc(OC)cc3)c(Oc3ccccc3)c2)cc1 [Compound 33, 2,2′-((2-Phenoxy-1,4-phenylene)bis(((4-methoxyphenyl)sulfonyl)azanediyl))diacetic Acid] | 363 µg/mL (≈ 553 µM) | 
6 | COc1ccc(S(=O)(=O)N(CC(=O)O)c2ccc(N(CC(=O)O)S(=O)(=O)c3ccc(OC)cc3)c(OCc3cccc(OC)c3)c2)cc1 [Compound 38, 2,2′-((2-((3-Methoxybenzyl)oxy)-1,4-phenylene)bis(((4-methoxyphenyl)sulfonyl)azanediyl))diacetic Acid] | 379 µg/mL (≈ 541 µM) | 
7 | COc1ccc(S(=O)(=O)N(CC#N)c2ccc(N(CC#N)S(=O)(=O)c3ccc(OC)cc3)c(OCc3ccccc3)c2)cc1 [Compound 41, N,N′-[2-(Benzyloxy)-1,4-phenylene]bis[N-(cyanomethyl)-4-methoxybenzenesulfonamide]] | < 50 µg/mL | logPe (permeability coefficient) [2]: -4.19
8 | COc1ccc(S(=O)(=O)N(CC(=O)O)c2ccc(N(CC(=O)O)S(=O)(=O)c3ccc(OC)cc3)c(O)c2)cc1 [Compound 39, 2,2′-((2-Hydroxy-1,4-phenylene)bis(((4-methoxyphenyl)sulfonyl)azanediyl))diacetic Acid] | 343 µg/mL (≈ 591 µM) | 
9 | COc1ccc(S(=O)(=O)N(CC(=O)O)c2ccc(N(CC(=O)O)S(=O)(=O)c3ccc(OC)cc3)c(-c3ccccc3)c2)cc1 [Compound 34, 2,2′-([1,1′-Biphenyl]-2,5-diylbis(((4-methoxyphenyl)sulfonyl)azanediyl))diacetic Acid] | 298 µg/mL (≈ 465 µM) | DSF ΔTi [6]: 0.1–1.2 °C
10 | COc1ccc(S(=O)(=O)N(CC(=O)O)c2ccc(N(CC(=O)O)S(=O)(=O)c3ccc(OC)cc3)c(OCc3ccccc3)c2)cc1 [Compound 11, 2,2′-((2-(Benzyloxy)-1,4-phenylene)bis(((4-methoxyphenyl)sulfonyl)azanediyl))diacetic Acid] | 348 µg/mL (≈ 519 µM) | 
11 | CCCOc1cc(N(CC(=O)O)S(=O)(=O)c2ccc(OC)cc2)ccc1N(CC(=O)O)S(=O)(=O)c1ccc(OC)cc1 [Compound 36, 2,2′-((2-Propoxy-1,4-phenylene)bis(((4-methoxyphenyl)sulfonyl)azanediyl))diacetic Acid] | 347 µg/mL (≈ 557 µM) | 
12 | COc1ccc(S(=O)(=O)N(CC(=O)O)c2ccc(N(Cc3nnn[nH]3)S(=O)(=O)c3ccc(OC)cc3)c(OCc3ccccc3)c2)cc1 [Compound 52, N-(4-((N-((1H-Tetrazol-5-yl)methyl)-4-methoxyphenyl)sulfonamido)-3-(benzyloxy)phenyl)-N-((4-methoxyphenyl)sulfonyl)glycine] | 256 µg/mL (≈ 368 µM) | 
13 | COc1ccc(S(=O)(=O)N(CC(N)=O)c2ccc(N(CC(N)=O)S(=O)(=O)c3ccc(OC)cc3)c(OCc3ccccc3)c2)cc1 [Compound 40, 2,2′-((2-(Benzyloxy)-1,4-phenylene)bis(((4-methoxyphenyl)sulfonyl)azanediyl))diacetamide] | < 50 µg/mL | 
14 | COc1ccc(S(=O)(=O)N(CC(=O)O)c2ccc(N(CC(=O)O)S(=O)(=O)c3ccc(OC)cc3)c(OC)c2)cc1 [Compound 10, 2,2′-((2-Methoxy-1,4-phenylene)bis(((4-methoxyphenyl)sulfonyl)azanediyl))diacetic Acid] | 271 µg/mL (≈ 456 µM) | 
15 | COC(=O)[C@]12CCC(C)(C)C[C@H]1[C@H]1C(=O)C=C3[C@@]4(C)C=C(C#N)C(=O)C(C)(C)[C@@H]4CC[C@@]3(C)[C@]1(C)CC2 [CDDO-Me, bardoxolone methyl] |  | Concentration above which cytotoxic in NQO1 assay [7]: higher than 1 μM; NQO1 induction, concentration-response [3]: Dose-dependent induction
16 | CCOc1cc(N(CC(=O)O)S(=O)(=O)c2ccc(OC)cc2)ccc1N(CC(=O)O)S(=O)(=O)c1ccc(OC)cc1 [Compound 31, 2,2′-((2-Ethoxy-1,4-phenylene)bis(((4-methoxyphenyl)sulfonyl)azanediyl))diacetic Acid] | 337 µg/mL (≈ 554 µM) | 
17 | COc1ccc(S(=O)(=O)N(Cc2nnn[nH]2)c2ccc(N(Cc3nnn[nH]3)S(=O)(=O)c3ccc(OC)cc3)c(OCc3ccccc3)c2)cc1 [Compound 42, N-((1H-Tetrazol-5-yl)methyl)-N-(4-((N-((1H-tetrazol-5-yl)methyl)-4-methoxyphenyl)sulfonamido)-2-(benzyloxy)phenyl)-4-methoxybenzenesulfonamide] | < 50 µg/mL | 
18 | COc1ccc(S(=O)(=O)N(Cc2nnn[nH]2)c2ccc(N(CC(=O)O)S(=O)(=O)c3ccc(OC)cc3)c(OCc3ccccc3)c2)cc1 [Compound 51, N-(4-((N-((1H-Tetrazol-5-yl)methyl)-4-methoxyphenyl)sulfonamido)-2-(benzyloxy)phenyl)-N-((4-methoxyphenyl)sulfonyl)glycine] | 254 µg/mL (≈ 366 µM) | 
